# Experimental data reported in ChEMBL document CHEMBL1221329, “Identification of a novel NR2B-selective NMDA receptor antagonist using a virtual screening approach” (Bioorg Med Chem Lett, 2010).
# Legend:
# [1] = target: T1, Glutamate NMDA receptor; GRIN1/GRIN2B (Homo sapiens, UniProt Q05586+Q13224); experiment: Antagonist activity at wild type NR1/NR2B receptor expressed in Xenopus oocytes assessed as ratio of residual current induced by agonist in presence of compound to residual current induced by agonist alone at 10 uM by two-electrode voltage-clamp method; assay type: functional, cell-based; conditions: Oocyte
# [2] = Antagonist activity at NR1/NR2B NTD truncated mutant receptor expressed in Xenopus oocytes assessed as ratio of residual current induced by agonist in presence of compound to residual current induced by agonist alone at 10 uM by two-electrode voltage-clamp method; assay type: functional, Oocyte
# [3] = target: T1, Glutamate NMDA receptor; GRIN1/GRIN2B; experiment: Ratio of compound IC50 to ifenprodil IC50 for wild type NR1/NR2B receptor by radioligand binding assay; assay type: protein-complex assay
# [4] = target: T1, Glutamate NMDA receptor; GRIN1/GRIN2B; experiment: Antagonist activity at wild type NR1/NR2B receptor expressed in Xenopus oocytes assessed as inhibition of agonist-induced current amplitude at 10 uM by two-electrode voltage-clamp method; assay type: functional, cell-based; conditions: Oocyte
# [5] = target: T2, Glutamate NMDA receptor; GRIN1/GRIN2A (Homo sapiens) (UniProt Q05586+Q12879); experiment: Antagonist activity at wild type NR1/NR2A receptor expressed in Xenopus oocytes assessed as ratio of residual current induced by agonist in presence of compound to residual current induced by agonist alone at 10 uM by two-electrode voltage-clamp method; assay type: functional, cell-based; conditions: Oocyte
# [6] = Antagonist activity at NR1/NR2B NTD truncated mutant receptor expressed in Xenopus oocytes assessed as inhibition of agonist-induced current amplitude at 10 uM by two-electrode voltage-clamp method; assay type: functional; conditions: Xenopus laevis, Oocyte
# [7] = target: T2, Glutamate NMDA receptor; GRIN1/GRIN2A (Homo sapiens); experiment: Antagonist activity at wild type NR1/NR2A receptor expressed in Xenopus oocytes assessed as inhibition of agonist-induced current amplitude at 10 uM by two-electrode voltage-clamp method; assay type: functional, cell-based; conditions: Oocyte
# [8] = target: T1, Glutamate NMDA receptor; GRIN1/GRIN2B; experiment: Antagonist activity at wild type NR1/NR2B receptor expressed in Xenopus oocytes assessed as inhibition of agonist-induced current amplitude by two-electrode voltage-clamp method; assay type: functional, cell-based, Oocyte
# [9] = target: T1, Glutamate NMDA receptor; GRIN1/GRIN2B; experiment: Ratio of compound IC50 to ifenprodil IC50 for wild type NR1/NR2B receptor expressed in Xenopus oocytes; assay type: cell-based; conditions: Oocyte
SMILES,Ratio [1],Ratio [2],Ratio IC50 [3],Ratio [5],further results
O=C1N=C(N2CCN(Cc3ccccc3)CC2)S/C1=C\c1ccccc1O,0.96,0.96,–,–,–
COc1cc(/C=C2\SC(N3CCN(c4ccc(C)c(Cl)c4)CC3)=NC2=O)ccc1O,0.9,0.97,–,–,–
C(#Cc1ccc2[nH]ccc2c1)CN1CCC(=Cc2ccccc2)CC1,–,–,140,–,–
O=c1[nH]c2cc([S+]([O-])CCN3CCC(Cc4ccc(F)cc4)CC3)ccc2o1 (stereo unspecified),–,–,0.03,–,–
CC(=O)Nc1ccc2c(c1)CN(Cc1ccc(Cl)cc1)CO2,0.83,0.88,–,0.77,inhibition [4]: < 20%
Cn1c(O)nc2cc(C#CCN3CCC(Cc4ccccc4)CC3)ccc21,–,–,560,–,–
O=C1N=C(N2CCN(c3cccc(Cl)c3)CC2)S/C1=C\c1ccc(O)cc1,0.94,0.92,–,0.9,–
Nc1ccc(N2CCN(Cc3ccccc3Cl)CC2)cc1,0.98,0.98,–,0.97,inhibition [4]: < 20%
COc1cc(CN2CCN(Cc3cccc(C)c3)CC2)cc(OC)c1O,0.96,0.97,–,0.98,inhibition [4]: < 20%
CCN1CCN(C2=NC(=O)/C(=C/c3ccc(O)cc3)S2)CC1,0.93,0.96,–,–,–
Oc1nc2cc(C#CCN3CCC(=Cc4ccc(F)cc4)CC3)ccc2[nH]1,–,–,2.5,–,–
N=C1/C(=C/c2ccc(O)cc2)C(=O)N=C2SC(Cc3ccc(Cl)cc3)=NN12,0.9,0.97,–,0.99,inhibition [4]: < 20%
Oc1ccc(CCCCN2CCc3c([nH]c4ccccc34)C2)cc1,–,–,5,–,–
O=C1N=C(N2CCN(Cc3ccccc3)CC2)S/C1=C\c1ccc(O)cc1O,0.18,0.92,–,0.92,inhibition at 10 µM [6]: 6%; inhibition [7]: 6%; IC50 [8]: 1.65 µM
CC(=O)Nc1ccc(N2C(=O)C[C@@H](N3CCc4[nH]c5ccccc5c4C3)C2=O)cc1,0.97,0.98,–,0.98,inhibition [4]: < 20%
CCN(CC)CCCOC(=O)c1ccc(O)cc1O,0.94,0.97,–,0.97,inhibition [4]: < 20%
O=C1N=C(N2CCN(Cc3ccccc3)CC2)S/C1=C\c1ccc(O)cc1,0.22,0.96,–,0.94,inhibition [4]: 0.92%; Ratio IC50 [9]: 10; inhibition at 10 µM [6]: 4%; inhibition [7]: 4%; IC50 [8]: 2.7 µM
C[C@@H](CN1CCC(Cc2ccccc2)CC1)[C@@H](O)c1ccc(O)cc1,–,–,0.3,–,–
O=C1N=C(N2CCN(c3ccccc3)CC2)S/C1=C\c1ccc(O)cc1,0.75,0.96,–,0.88,inhibition at 10 µM [6]: 25%; inhibition [7]: 25%

SMILES,Ratio [1],Ratio [2],Ratio IC50 [3],Ratio [5],further results
C(#Cc1ccccc1)CCN1CCC(Cc2ccccc2)CC1,–,–,43,–,–
O=C1N=C(N2CCN(c3ccccc3)CC2)S/C1=C/c1ccc(O)cc1,0.74,0.96,–,–,–
COc1cc(/C=C2\SC(Nc3cccc(Cl)c3Cl)=NC2=O)ccc1O,0.925,0.96,–,0.97,inhibition [4]: < 20%
COc1cc(/C=C2\SC(N3CCN(c4cccc(C)c4)CC3)=NC2=O)ccc1O,0.95,0.96,–,–,–
Oc1ccc2c(c1)OC[C@@H](N1CCC(O)(c3ccccc3)CC1)[C@H]2O,–,–,11,–,–
Oc1ccc2[nH]c3c(c2c1)CN(CCCCc1ccccc1)CC3,–,–,0.45,–,–
COc1cc(/C=C2/SC(N3CCN(Cc4ccccc4)CC3)=NC2=O)ccc1O,0.61,0.97,–,–,IC50 [8]: 11 µM
O=C1CNC(=O)N1CCCCCN1CCC(Cc2ccccc2)CC1,–,–,440,–,–
Oc1nc2cc(C#CCN3CCC(Cc4ccc(F)cc4)CC3)c[nH]c-2n1,–,–,0.03,–,–
Cc1nnc(SCCCN2CCC(Cc3ccccc3)CC2)s1,–,–,58,–,–
Nc1ccc(C#CCCN2CCC(Cc3ccccc3)CC2)cc1,–,–,4,–,–
O=C1N=C(N2CCN(c3ccc(F)cc3)CC2)S/C1=C\c1ccc(O)cc1,0.75,0.96,–,–,IC50 [8]: 13 µM
O=C1CNC(=O)N1CCCN1CCC(Cc2ccccc2)CC1,–,–,250,–,–
O=C(CN1CCc2[nH]c3ccccc3c2C1)c1c[nH]c2ccccc12,0.9,0.94,–,0.96,inhibition [4]: < 20%
O=C1N=C(N2CCN(Cc3ccccc3)CC2)S/C1=C/c1ccc(O)cc1,0.15,0.96,–,0.9,inhibition at 10 µM [6]: 6%; inhibition [7]: 6%; IC50 [8]: 1.8 µM
O=C1N=C(N2CCN(Cc3ccccc3)CC2)S/C1=C\c1ccccc1,0.95,0.97,–,–,–
Oc1nc2cc(C#CCN3CCC(Cc4ccccc4)CC3)ccc2[nH]1,–,–,0.048,–,–
COc1cc(/C=C2\SC(N3CCN(c4ccc(C)cc4)CC3)=NC2=O)ccc1O,0.95,0.97,–,–,–
O=c1[nH]c2ncc(C#CCN3CCC(Cc4ccccc4)CC3)cc2o1,–,–,0.45,–,–
